Where a name gives a salt, the structure may show the parent alone. Read-outs that look alike come from different tables or passages of the source.
Experiments:
[1] = molecular target: β-lactamase (Citrobacter freundii, UniProt P05193); test: Determination of the β-lactamase inhibiting activity (Test C): inhibition of nitrocefin cleavage by isolated β-lactamase; assay type: biochemical, Citrobacter freundii 1982; details: pH 7.0, 37° C.
Experimental: Various β-lactamases can be isolated from penicillin- or cephalosporin-resistant bacterial strains such as Klebsiella pneumoniae NCTC 418, Proteus vulgaris 1028, Bacillus licheniformis 749/C, Escherichia coli SNO1, Pseudomonas aeruginosa 18SH and Citrobacter freundii 1203. For this purpose, the corresponding strains are cultivated in Tryptic Soy Broth (Difco) and harvested by centrifugation in the last logarithmic growth phase (when necessary 50-100 mg/l of ampicillin are added to the medium towards the end of the log-phase in order to induce the β-lactamase). The thus-obtained bacterial mass is treated with 20 mM Tris-HCl buffer (pH 7.0); the cells are broken open with a French press while cooling. The mixture is centrifuged (20,000 r/min.) for 20-30 minutes and a clear crude extract is obtained. The purification of the proteins is effected according to the method of Cartwright, S. J. & Waley, S. G. [Biochem. J. 221, 505-512 (1980)] and, for B. lichenformis, Ellerby, L. M. et al. [Biochemistry 29, 5797-5806 (1990)].
The determination of the activity of the isolated β-lactamases can be carried out according to the method of O'Callaghan, C. H. et al. [Antimicr. Ag. Chemother. […] The cleavage of the substrate, which is accompanied by a change in colour, is effected at 37° C. and is followed quantitatively at 482 nm using a spectral photometer. […]

[2] = tested on: Citrobacter freundii 1982; test: MIC in vitro of a 1:4 combination of ceftriaxone with a compound of formula I (Test D); assay type: cell-based; details: 1:4 combination of ceftriaxone with the compound; for MIC C. freundii 1982: Table 2; for MIC C. freundii 1982 (D): Table 4, test D
Experimental: The minimum inhibitory concentration in vitro ([…]) of a 1:4 combination of ceftriaxone with a compound of formula I against Citrobacter freundii 1982 was measured and compiled in Table 2 hereinafter.

[3] = tested on: Citrobacter freundii 1982; test: as above; assay type: cell-based; details: Table 2; ceftriaxone alone (control)
[4] = tested on: E. coli 1346; test: Antibacterial activity of the products per se, serial dilution method in liquid medium (Test E); assay type: cell-based; details: product per se; for MIC E. coli 1346 (E): Table 4, test E
Source text: The antibacterial activity of the products per se is illustrated on the basis of Table 3 hereinafter, the minimum inhibitory concentration […] in vitro against E. coli 1346 being determined using the serial dilution method in liquid medium: […]

β-lactamase, sequence (P05193 21-381): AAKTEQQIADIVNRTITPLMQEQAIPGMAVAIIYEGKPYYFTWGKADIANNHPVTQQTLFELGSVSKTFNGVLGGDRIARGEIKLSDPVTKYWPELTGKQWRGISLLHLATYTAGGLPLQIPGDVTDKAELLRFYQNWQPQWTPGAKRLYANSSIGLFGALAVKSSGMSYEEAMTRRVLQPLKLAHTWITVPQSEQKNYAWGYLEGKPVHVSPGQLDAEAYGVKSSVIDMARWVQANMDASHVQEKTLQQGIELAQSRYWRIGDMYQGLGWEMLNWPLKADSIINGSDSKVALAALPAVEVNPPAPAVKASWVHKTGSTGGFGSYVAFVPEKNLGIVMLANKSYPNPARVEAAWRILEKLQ

MIC C. freundii 1982 (D) [2]	MIC E. coli 1346 (E) [4]	Compound	MIC C. freundii 1982 [2]	other results
		(1aS,3aR,6bR)-2-[(R)- and [(S)-1,1-Dioxo-tetrahydrothien-3-ylcarbamoyl]-5-methylsulphonyloxy-1-oxo-1a,2,3,3a,4,6b-hexahydro-1H-2,6a-diazacyclobut[cd]indene-6-carboxylic acid sodium salt [9(g)]	0.25 µg/mL	IC50 ([1]; Table 1, nitrocefin substrate, 15 minutes pre-incubation of β-lactamase with inhibitor, read-out: IC 50): 0.027 µM
		CO/N=C(\C(=O)N[C@@H]1C(=O)N2C(C(=O)O)=C(CSc3nc(=O)c(=O)[nH]n3C)CS[C@H]12)c1csc(N)n1 [Ceftriaxone, ceftriaxone]		MIC C. freundii 1982 [3]: 128 µg/mL
0.5 µg/mL	1 µg/mL	CC(=O)N1C[C@H]2CC(CSc3nnnn3CC(=O)Nc3ccc(O)cc3)=C(C(=O)O)N3C(=O)[C@@H]1[C@@H]23 [78(a), (1aS,3aR,6bR)-2-Acetyl-5-[1-(4-hydroxy-phenylcarbamoylmethyl)-1H-tetrazol-5-ylsulphanylmethyl]-1-oxo-1a,2,3,3a,4,6b-hexahydro-1H-2,6a-diazacyclobut[cd]indene-6-carboxylic acid sodium salt]		
		Cn1nnnc1SC1=C(C(=O)O)N2C(=O)[C@@H]3[C@H]2[C@H](C1)CN3C(=O)NCc1ccc(S(N)(=O)=O)cc1 [3(g), (1aS,3aR,6bR)-5-(1-Methyl-1H-tetrazol-5-ylsulphanyl)-1-oxo-2-(4-sulphamoyl-benzylcarbamoyl)-1a,2,3,3a,4,6b-hexahydro-1H-2,6a-diazacyclobut[cd]indene-6-carboxylic acid sodium salt]	0.5 µg/mL	MIC E. coli 1346 ([4]; Table 3, liquid medium): 16 µg/mL
2 µg/mL	16 µg/mL	Cn1nnnc1SCC1=C(C(=O)O)N2C(=O)[C@@H]3[C@H]2[C@H](C1)CN3CC(=O)Nc1ccc(O)cc1 [61(b), (1aS,3aR,6bR)-2-(4-Hydroxy-phenylcarbamoylmethyl)-5-(1-methyl-1H-tetrazol-5-ylsulphanylmethyl)-1-oxo-1a,2,3,3a,4,6b-hexahydro-1H-2,6a-diazacyclobut[cd]indene-6-carboxylic acid sodium salt]		

Compound	MIC C. freundii 1982 (D) [2]	MIC E. coli 1346 (E) [4]	MIC C. freundii 1982 [2]	other results
(1aS,3aR,6bS)-5-(Carbamoyloxymethyl)-2-(4-hydroxyphenylcarbamoyl)-1-oxo-1,1a,2,3,3a,6b-hexahydro-4-oxa-2,6a-diazacyclobut[cd]indene-6-carboxylic acid sodium salt [31(g)]	16 µg/mL	0,5 μg/ml		IC50 ([1]; Table 4, test C, nitrocefin, 15 minutes pre-incubation, read-out: IC 50 (C)): 51 µM
